Marks after values point to notes of the source that are not given here.
Assays:
[1] = Red blood cell binding (RBC to plasma ratio), human whole blood; type: in vitro ADME; conditions: 30 minutes at 37° C., nominal 500 ng/ml
Experimental: (§1) Compounds, including one positive control, are assessed for red blood cell (RBC) uptake, using a modified procedure based on the protocol reported in Sun, J. X. S., et al. High-performance liquid chromatographic analysis, plasma protein binding and red blood cell partitioning of phenprobamate. Biopharmaceutics and Drug Disposition, 8 (1987) 341-351.
(§2) Briefly, RBC uptake is evaluated by comparison of the levels in spiked plasma (n=3) and plasma isolated from spiked whole blood (n=3). Compounds are incubated with human and mouse whole blood, respectively, for 30 minutes at 37° C. using a nominal concentration of 500 ng/ml. Following centrifugation, the plasma is removed and submitted for analysis. Each compound is also spiked into blank plasma at a nominal concentration of 500 ng/ml, and submitted for analysis. Levels in the two plasma samples (Cp′ and Cp in the equation below) and the blood hematocrit are used to determine the red blood cell to plasma ratio (Crbc/Cp). [formula] In equation 1, Cp′ is the level of drug in the spiked “blank” plasma, Cp is the level of drug in the plasma of spiked whole blood, and H is the hematocrit. The hematocrit values are determined as 0.4 for human whole blood and 0.41 for mouse whole blood. The samples are analyzed with ESI LC/MS, using positive ion detection with an internal standard.
(§3) The red blood cell to plasma ratio is determined for each compound using equation 1. Tables 6 and 7 summarize the respective mean Crbc/Cp values and standard deviations for mouse and human whole blood, respectively, in descending order based on the red blood cell to plasma ratio, where “*” denotes Positive Control, and “ND” denotes Not Determined. MDL 108552 is included as a positive control for red blood cell uptake.

[2] = Red blood cell binding (RBC to plasma ratio), mouse whole blood; type: in vitro ADME; conditions: 30 minutes at 37° C., nominal 500 ng/ml, hematocrit 0.41
Experimental: as §1, §2, §3

[3] = Plasma pharmacokinetics in mice after single intravenous cassette doses; conditions: for Mean Conc. in plasma / Mean concentration in plasma / concentration at 0.083 h / concentration at 0.25 h / concentration at 0.5 h / concentration at 1 h / concentration at 3 h / concentration at 6 h / concentration at 8 h: mice; for Mean concentration in plasma: single 18 mg/kg intravenous cassette dose (Cassette #1); for concentration at 0.083 h / concentration at 0.25 h / concentration at 0.5 h / concentration at 1 h / concentration at 3 h / concentration at 6 h / concentration at 8 h / AUC(0-inf) / Cmax / half-life: male, Hsd:ICR (CD-1), mouse, plasma, 3 mg/kg; for concentration at 0.083 h / concentration at 0.25 h / concentration at 0.5 h / concentration at 1 h / concentration at 3 h / concentration at 6 h / concentration at 8 h: intravenous, Mean Conc. in plasma; for AUC(0-inf) / Cmax / half-life: iv; for AUC(0-inf): AUC0-∞; for Cmax: Cmax (highest measured value); for half-life: t1/2, λz
Experimental: Male mice are given single intravenous cassette doses of CDK inhibitor compounds.
A single intravenous cassette dose (18 or 15 mg/kg free base) is administered. For each compound, this is equivalent to a dose of approx. 3 mg/kg free base. […] The dose is administered at a volume of 10 ml/kg (total volume of approximately 0.25 ml/animal).
Male mice (Hsd:ICR (CD-1® SD®), Harlan), each weighing approximately 20-30 g at the start of the study. […] Water is available ad libitum throughout the study.
A single cassette dose of 5-6 compounds is administered by bolus injection into the tail vein over a 10-15-second period. […] Whole blood (approximately 0.6 ml/sample) is obtained by cardiac puncture and transferred to 3 ml glass tubes containing 45 U sodium heparin.
Sample Processing: Plasma: Whole blood is centrifuged at approximately 3,200 rpm for 10 min at approximately 5° C. and the plasma (approx. 0.3 ml/sample) is transferred to chilled plastic vials and stored at approx. −70° C. until bioanalysis.
Sample Analysis: Concentrations of each test article in plasma are quantitated by a non-validated method based on LC/MS using the following protocol.
Samples are removed from the freezer, allowed to thaw at room temperature, and vortexed to insure complete homogenization prior to sample manipulation. Samples are then prepared according to the following scheme: • 1. transfer 48 μL of plasma (blank mouse sample) into a 12×75 mm test tube. • 2. add 12 μL of working standard to the blank plasma for standard curve preparation. • 3. […] Inject 25 μL on LC/MS. Chromatographic Conditions:
Data Analysis: Concentrations of Compounds in plasma of individual animals are determined by bioanalytics. […] Statistical analyses are limited to simple expressions of variation (mean and standard deviation). The plasma AUC (area-under-curve) is determined by the linear trapezoidal rule. […] All PK parameters are determined by noncompartmental methods using WinNonlin version 3.0 (Pharsight Corp).
The following information is based on a graph of the semi-log of the plasma concentration in ng/ml versus collection time in hours. • “Cmax” represents the maximum plasma concentration. • “t1/2” represents the half-life of the compound. • “AUC0-∞” represents the calculated area under the curve. • “AUC % Extrap(obs.)” represents the extrapolated area under the curve. • “Cls” is the clearance rate.

[4] = Cassette #3, single 15 mg/kg iv cassette dose (3 mg/kg/compound), 0.083 h
[5] = Cassette #3, single 15 mg/kg iv cassette dose (3 mg/kg/compound), 0.25 h
[6] = Cassette #3, single 15 mg/kg iv cassette dose (3 mg/kg/compound), 0.5 h
[7] = Cassette #3, single 15 mg/kg iv cassette dose (3 mg/kg/compound), 1 h
[8] = Cassette #3, single 15 mg/kg iv cassette dose (3 mg/kg/compound), 3 h
[9] = Cassette #3, single 15 mg/kg iv cassette dose (3 mg/kg/compound), 6 h
[10] = Cassette #3, single 15 mg/kg iv cassette dose (3 mg/kg/compound), 8 h
[11] = Cassette #3, single 15 mg/kg iv cassette dose (3 mg/kg/compound), 24 h
[12] = 24 h, BLQ = below assay quantification limit (approx. 1 ng/ml)
[13] = Cassette #2, single 18 mg/kg iv cassette dose (3 mg/kg/compound), 8 h
[14] = Cassette #2, single 18 mg/kg iv cassette dose (3 mg/kg/compound), 24 h
[15] = mouse plasma, iv Cassette #2, 3 mg/kg/compound (18 mg/kg total dose)
[16] = mouse plasma, iv Cassette #3, 3 mg/kg/compound (15 mg/kg total dose)
[17] = mouse plasma, iv Cassette #4, 3 mg/kg/compound (15 mg/kg total dose)

Cl.Cl.N[C@H]1CC[C@H](Nc2nc(NC3CCN(C(=O)Oc4ccc(Cl)cc4)CC3)c3ncn(C4CCCC4)c3n2)CC1 [Compound 88, trans-4-[2-(4-Amino-cyclohexylamino)-9-cyclopentyl-9H-purin-6-ylamino]-piperidine-1-carboxylic acid 4-chloro-phenyl ester dihydrochloride]
Mean Red Blood Cell to Plasma Ratio [1]: 2.6 | Mean Red Blood Cell to Plasma Ratio [2]: 3.5 | Mean Conc. in plasma [3, 4]: 1483.3 ± 272.5 ng/mL | Mean Conc. in plasma [3, 5]: 420.9 ± 49.9 ng/mL | Mean Conc. in plasma [3, 6]: 150.2 ± 5.9 ng/mL | Mean Conc. in plasma [3, 7]: 74.6 ± 16.1 ng/mL | Mean Conc. in plasma [3, 8]: 24.8 ± 7.4 ng/mL | Mean Conc. in plasma [3, 9]: 8.9 ± 1.6 ng/mL | Mean Conc. in plasma [3, 10]: 5.4 ± 2.0 ng/mL | Mean Conc. in plasma [3, 11]: BLQ

COC(=O)c1ccc(OC(=O)N2CCC(Nc3nc(N[C@H]4CC[C@H](N)CC4)nc4c3ncn4C3CCCC3)CC2)cc1.Cl.Cl [Compound 83, trans-4-[2-(4-Amino-cyclohexylamino)-9-cyclopentyl-9H-purin-6-ylamino]-piperidine-1-carboxylic acid 4-methoxycarbonyl-phenyl ester dihydrochloride]
Mean Red Blood Cell to Plasma Ratio [1]: 4.1 | Mean concentration in plasma ([3]; 0.083 h): 1515.7 ± 611.8 ng/mL | Mean concentration in plasma ([3]; 0.25 h): 217.9 ± 92.8 ng/mL | Mean concentration in plasma ([3]; 0.5 h): 61.3 ± 32.9 ng/mL | Mean concentration in plasma ([3]; 1 h): 14.1^a ng/ml | Mean concentration in plasma ([3]; 3 h): 4.1^a ng/ml | Mean concentration in plasma ([3]; 6 h): 1.6^a ng/ml | Mean concentration in plasma ([3]; 8 h): 6.3^a ng/ml | Mean concentration in plasma [3, 12]: BLQ

CCOC(=O)c1ccc(NC(=O)N2CCC(Nc3nc(N[C@H]4CC[C@H](N)CC4)nc4c3ncn4C3CCCC3)CC2)cc1.Cl.Cl [Compound 154, trans-4-[(1-{4-[2-(4-Amino-cyclohexylamino)-9-cyclopentyl-9H-purin-6-ylamino]-piperidine-1-yl}-methanoyl)-amino]-benzoic acid ethyl ester dihydrochloride]
Mean Red Blood Cell to Plasma Ratio [1]: 4.1 | Mean Conc. in plasma [3, 13]: BLQ^a | Mean Conc. in plasma [3, 14]: BLQ^a

NC1CCC(Nc2nc(NCCCc3ccccc3)c3ncn(C4CCCC4)c3n2)CC1 (stereo not drawn) [MDL 107167, reference compound]
concentration at 0.083 h ([3]; Cassette #2, single 18 mg/kg iv cassette dose (3 mg/kg/compound), 0.083 h): 472 ng/mL | concentration at 0.25 h ([3]; Cassette #2, single 18 mg/kg iv cassette dose (3 mg/kg/compound), 0.25 h): 317 ng/mL | concentration at 0.5 h ([3]; Cassette #2, single 18 mg/kg iv cassette dose (3 mg/kg/compound), 0.5 h): 266 ng/mL | concentration at 1 h ([3]; Cassette #2, single 18 mg/kg iv cassette dose (3 mg/kg/compound), 1 h): 133 ng/mL | concentration at 3 h ([3]; Cassette #2, single 18 mg/kg iv cassette dose (3 mg/kg/compound), 3 h): 16.1 ± 1.4 ng/mL | concentration at 6 h ([3]; Cassette #2, single 18 mg/kg iv cassette dose (3 mg/kg/compound), 6 h): 2.8 ± 0.4 ng/mL | concentration at 8 h [3, 13]: 1.6 ± 0.2 ng/mL | concentration at 0.083 h [3, 4]: 520 ± 69.3 ng/mL | concentration at 0.25 h [3, 5]: 324 ± 32.3 ng/mL | concentration at 0.5 h [3, 6]: 209 ± 24.1 ng/mL | concentration at 1 h [3, 7]: 108 ± 29.3 ng/mL | concentration at 3 h [3, 8]: 23.5 ± 6.4 ng/mL | concentration at 6 h [3, 9]: 5 ± 0.5 ng/mL | concentration at 8 h [3, 10]: 2.4 ± 1.7 ng/mL | concentration at 0.083 h ([3]; Cassette #4, single 15 mg/kg iv cassette dose (3 mg/kg/compound), 0.083 h): 567 ± 43.5 ng/mL | concentration at 0.25 h ([3]; Cassette #4, single 15 mg/kg iv cassette dose (3 mg/kg/compound), 0.25 h): 491 ± 32.3 ng/mL | concentration at 0.5 h ([3]; Cassette #4, single 15 mg/kg iv cassette dose (3 mg/kg/compound), 0.5 h): 325 ± 13.6 ng/mL | concentration at 1 h ([3]; Cassette #4, single 15 mg/kg iv cassette dose (3 mg/kg/compound), 1 h): 145 ± 9.5 ng/mL | concentration at 3 h ([3]; Cassette #4, single 15 mg/kg iv cassette dose (3 mg/kg/compound), 3 h): 35.3 ± 8.3 ng/mL | concentration at 6 h ([3]; Cassette #4, single 15 mg/kg iv cassette dose (3 mg/kg/compound), 6 h): 10.1 ± 3 ng/mL | concentration at 8 h ([3]; Cassette #4, single 15 mg/kg iv cassette dose (3 mg/kg/compound), 8 h): 3.7 ± 0.7 ng/mL | AUC(0-inf) [3, 15]: 467 ng·h/mL | AUC(0-inf) [3, 16]: 452 ng·h/mL | AUC(0-inf) [3, 17]: 627 ng·h/mL | Cmax [3, 15]: 472 ng/mL | Cmax [3, 16]: 520 ng/mL | Cmax [3, 17]: 567 ng/mL | half-life [3, 15]: 1.5 h | half-life [3, 16]: 1.5 h | half-life [3, 17]: 1.5 h | Mean Conc. in plasma [3, 14]: BLQ | Mean Conc. in plasma [3, 11]: BLQ | Mean Conc. in plasma ([3]; Cassette #4, single 15 mg/kg iv cassette dose (3 mg/kg/compound), 24 h): BLQ | Mean concentration in plasma [3, 12]: BLQ | AUC0-∞ ([3]; mouse plasma, iv Cassette #1, 3 mg/kg/compound (18 mg/kg total dose)): 532 ng·h/mL

From patent publication US6861524B2, “Acyl and sulfonyl derivatives of 6,9-disubstituted 2-(trans-1,4-diaminocyclohexyl)-purines and their use as antiproliferative agents” (Aventis Pharmaceuticals Inc., priority 2000, dated 2005)
